In patent US20240299385A1 (ReWind Therapeutics NV, priority 2021, published 2024):

Each compound was assayed against T1, human GPR17 receptor (Homo sapiens, UniProt Q13304) (assay: Calcium mobilization functional assay (Fluo-8, FLIPR TETRA) in HEK-293 hGPR17 (Gα-q assay)). Conditions: antagonism of MDL29,951 (~EC80) induced Ca2+ signal; cell line (HEK-293 hGPR17 or HEK-293 Suchi5 hGPR17) not given.
T1 construct: host or cells: HEK-293
Assay type: cell-based
Outline: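 Fluo-8-loaded HEK-293 hGPR17 cells (60 min dye loading, room temperature) were preincubated with compound for twenty minutes, then challenged with agonist MDL29,951 at ~EC80, 500 nM. Intracellular calcium release via Gα-q was recorded as FLIPR fluorescence for a further 2 minutes; compounds tested in duplicate.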

T1 sequence (Q13304 whole entry): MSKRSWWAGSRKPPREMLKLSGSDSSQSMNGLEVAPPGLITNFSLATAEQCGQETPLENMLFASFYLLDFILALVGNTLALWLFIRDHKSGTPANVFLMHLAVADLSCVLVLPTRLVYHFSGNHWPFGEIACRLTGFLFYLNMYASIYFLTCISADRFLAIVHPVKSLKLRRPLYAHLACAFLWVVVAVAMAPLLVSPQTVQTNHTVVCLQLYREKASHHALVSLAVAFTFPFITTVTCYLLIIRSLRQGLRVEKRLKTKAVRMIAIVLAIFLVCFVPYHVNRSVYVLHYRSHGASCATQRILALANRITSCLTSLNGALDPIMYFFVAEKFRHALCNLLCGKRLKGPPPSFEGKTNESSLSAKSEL

| IC50 [µM] | Structure (SMILES) |
| --- | --- |
| 0.5 to 5 | O=S(=O)(Nc1ccc(Cl)cc1F)c1c[nH]c(-c2ccccn2)c1 [Cpd 181, N-(4-chloro-2-fluoro-phenyl)-5-(2-pyridyl)-1H-pyrrole-3-sulfonamide] |
| 0.5 to 5 | N#Cc1ccc(NS(=O)(=O)c2c[nH]cc2Cc2ccccc2F)c(F)c1 [Cpd 182, N-(4-cyano-2-fluoro-phenyl)-4-[(2-fluorophenyl)methyl]-1H-pyrrole-3-sulfonamide] |
| 0.5 to 5 | N#Cc1ccc(NS(=O)(=O)c2c[nH]cc2Cc2cccnc2)c(F)c1 [Cpd 184, N-(4-cyano-2-fluoro-phenyl)-4-(3-pyridylmethyl)-1H-pyrrole-3-sulfonamide] |
| 5 to 50 | O=S(=O)(Nc1ncc(Cl)cc1F)c1c[nH]cc1Cc1ccccc1 [Cpd 192, 4-benzyl-N-(5-chloro-3-fluoro-2-pyridyl)-1H-pyrrole-3-sulfonamide] |
| 0.5 to 5 | O=S(=O)(Nc1cc(F)c(Br)cc1F)c1c[nH]cc1Cc1ccccc1 [Cpd 193, 4-benzyl-N-(4-bromo-2,5-difluoro-phenyl)-1H-pyrrole-3-sulfonamide] |
| 0.5 to 5 | N#Cc1ccc(NS(=O)(=O)c2c[nH]cc2Cc2ccccc2Cl)c(F)c1 [Cpd 194, 4-[(2-chlorophenyl)methyl]-N-(4-cyano-2-fluoro-phenyl)-1H-pyrrole-3-sulfonamide] |
| 0.5 to 5 | N#Cc1ccc(NS(=O)(=O)c2c[nH]cc2C(=O)c2ccccc2)c(F)c1 [Cpd 195, 4-benzoyl-N-(4-cyano-2-fluoro-phenyl)-1H-pyrrole-3-sulfonamide] |
| 5 to 50 | CC(=O)c1ccc(NS(=O)(=O)c2c[nH]c(-c3ccccn3)c2)c(F)c1 [Cpd 200, N-(4-acetyl-2-fluoro-phenyl)-5-(2-pyridyl)-1H-pyrrole-3-sulfonamide] |
| < 0.5 | O=S(=O)(Nc1cc(F)c(Cl)cc1F)c1c[nH]c(-c2ccccn2)c1 [Cpd 202, N-(4-chloro-2,5-difluoro-phenyl)-5-(2-pyridyl)-1H-pyrrole-3-sulfonamide] |
| < 0.5 | N#Cc1ccc(NS(=O)(=O)c2c[nH]cc2Cc2cccc(Cl)c2)c(F)c1 [Cpd 206, 4-[(3-chlorophenyl)methyl]-N-(4-cyano-2-fluoro-phenyl)-1H-pyrrole-3-sulfonamide] |
| 5 to 50 | N#Cc1ccc(NS(=O)(=O)c2c[nH]cc2C(O)c2ccccc2)c(F)c1 (stereo not shown) [Cpd 207, N-(4-cyano-2-fluoro-phenyl)-4-[hydroxy(phenyl)methyl]-1H-pyrrole-3-sulfonamide] |
| 0.5 to 5 | N#Cc1ccc(NS(=O)(=O)c2c[nH]cc2Cc2ccc(Cl)cc2)c(F)c1 [Cpd 208, 4-[(4-chlorophenyl)methyl]-N-(4-cyano-2-fluoro-phenyl)-1H-pyrrole-3-sulfonamide] |
| 5 to 50 | COc1ccc(Cc2c[nH]cc2S(=O)(=O)Nc2ccc(C#N)cc2F)cc1 [Cpd 209, N-(4-cyano-2-fluoro-phenyl)-4-[(4-methoxyphenyl)methyl]-1H-pyrrole-3-sulfonamide] |
| < 0.5 | COc1cccc(Cc2c[nH]cc2S(=O)(=O)Nc2ccc(C#N)cc2F)c1 [Cpd 210, N-(4-cyano-2-fluoro-phenyl)-4-[(3-methoxyphenyl)methyl]-1H-pyrrole-3-sulfonamide] |
| 0.5 to 5 | COc1ccccc1Cc1c[nH]cc1S(=O)(=O)Nc1ccc(C#N)cc1F [Cpd 211, N-(4-cyano-2-fluoro-phenyl)-4-[(2-methoxyphenyl)methyl]-1H-pyrrole-3-sulfonamide] |
| 5 to 50 | N#Cc1ccc(NS(=O)(=O)c2c[nH]cc2-c2ccc(F)cc2)c(F)c1 [Cpd 217, N-(4-cyano-2-fluoro-phenyl)-4-(4-fluorophenyl)-1H-pyrrole-3-sulfonamide] |
| 0.5 to 5 | N#Cc1ccc(NS(=O)(=O)c2c[nH]cc2-c2ccc(Cl)cc2)c(F)c1 [Cpd 218, 4-(4-chlorophenyl)-N-(4-cyano-2-fluoro-phenyl)-1H-pyrrole-3-sulfonamide] |
| 0.5 to 5 | Cc1ccc(-c2c[nH]cc2S(=O)(=O)Nc2ccc(C#N)cc2F)cc1 [Cpd 219, N-(4-cyano-2-fluoro-phenyl)-4-(p-tolyl)-1H-pyrrole-3-sulfonamide] |
| 0.5 to 5 | COc1cccc(-c2c[nH]cc2S(=O)(=O)Nc2ccc(C#N)cc2F)c1 [Cpd 220, N-(4-cyano-2-fluoro-phenyl)-4-(3-methoxyphenyl)-1H-pyrrole-3-sulfonamide] |
| 0.5 to 5 | Cc1cccc(-c2c[nH]cc2S(=O)(=O)Nc2ccc(C#N)cc2F)c1 [Cpd 221, N-(4-cyano-2-fluoro-phenyl)-4-(m-tolyl)-1H-pyrrole-3-sulfonamide] |
| 5 to 50 | N#Cc1ccc(NS(=O)(=O)c2c[nH]cc2-c2ccccc2Cl)c(F)c1 [Cpd 222, 4-(2-chlorophenyl)-N-(4-cyano-2-fluoro-phenyl)-1H-pyrrole-3-sulfonamide] |
| 5 to 50 | COc1ccccc1-c1c[nH]cc1S(=O)(=O)Nc1ccc(C#N)cc1F [Cpd 223, N-(4-cyano-2-fluoro-phenyl)-4-(2-methoxyphenyl)-1H-pyrrole-3-sulfonamide] |

Second part, the compound before the results:

| Structure (SMILES) | IC50 [µM] |
| --- | --- |
| O=S(=O)(Nc1cc(F)c(F)cc1F)c1c[nH]c(-c2ccccn2)c1 [Cpd 179, 5-(2-pyridyl)-N-(2,4,5-trifluorophenyl)-1H-pyrrole-3-sulfonamide] | 0.5 to 5 |
| COc1cccc(F)c1-c1cc(S(=O)(=O)Nc2cc(F)c(C(F)(F)F)cc2F)c[nH]1 [Cpd 180, N-[2,5-difluoro-4-(trifluoromethyl)phenyl]-5-(2-fluoro-6-methoxy-phenyl)-1H-pyrrole-3-sulfonamide] | 0.5 to 5 |
| COc1cc(F)c(NS(=O)(=O)c2c[nH]c(-c3ccccn3)c2)cc1F [Cpd 183, N-(2,5-difluoro-4-methoxy-phenyl)-5-(2-pyridyl)-1H-pyrrole-3-sulfonamide] | 0.5 to 5 |
| C#Cc1cc(F)c(NS(=O)(=O)c2c[nH]c(-c3ccccn3)c2)cc1F [Cpd 185, N-(4-ethynyl-2,5-difluoro-phenyl)-5-(2-pyridyl)-1H-pyrrole-3-sulfonamide] | 0.5 to 5 |
| O=S(=O)(Nc1ccc(C(F)(F)F)nc1F)c1c[nH]c(-c2ccccc2)c1 [Cpd 186, N-[2-fluoro-6-(trifluoromethyl)-3-pyridyl]-5-phenyl-1H-pyrrole-3-sulfonamide] | 0.5 to 5 |
| O=S(=O)(Nc1cc2cccnc2cc1F)c1c[nH]c(-c2ccccc2)c1 [Cpd 187, N-(7-fluoro-6-quinolyl)-5-phenyl-1H-pyrrole-3-sulfonamide] | 0.5 to 5 |
| O=S(=O)(Nc1ccc(OC(F)F)nc1F)c1c[nH]c(-c2ccccc2)c1 [Cpd 188, N-[6-(difluoromethoxy)-2-fluoro-3-pyridyl]-5-phenyl-1H-pyrrole-3-sulfonamide] | 0.5 to 5 |
| O=S(=O)(Nc1cc(F)c(C(F)(F)F)cc1F)c1c[nH]c(-c2ccc(F)cn2)c1 [Cpd 189, N-[2,5-difluoro-4-(trifluoromethyl)phenyl]-5-(5-fluoro-2-pyridyl)-1H-pyrrole-3-sulfonamide] | 0.5 to 5 |
| O=S(=O)(Nc1ccc(C(F)(F)F)c(F)c1)c1c[nH]c(-c2ccccn2)c1 [Cpd 190, N-[3-fluoro-4-(trifluoromethyl)phenyl]-5-(2-pyridyl)-1H-pyrrole-3-sulfonamide] | 0.5 to 5 |
| COc1ncccc1-c1cc(S(=O)(=O)Nc2cc(F)c(C(F)(F)F)cc2F)c[nH]1 [Cpd 191, N-[2,5-difluoro-4-(trifluoromethyl)phenyl]-5-(2-methoxy-3-pyridyl)-1H-pyrrole-3-sulfonamide] | < 0.5 |
| COc1ccc(F)c(NS(=O)(=O)c2c[nH]c(-c3ccccn3)c2)c1 [Cpd 196, N-(2-fluoro-5-methoxy-phenyl)-5-(2-pyridyl)-1H-pyrrole-3-sulfonamide] | 5 to 50 |
| O=S(=O)(Nc1cc(F)c(C(F)(F)F)cc1F)c1c[nH]c(-c2ccc(Cl)cn2)c1 [Cpd 197, 5-(5-chloro-2-pyridyl)-N-[2,5-difluoro-4-(trifluoromethyl)phenyl]-1H-pyrrole-3-sulfonamide] | 5 to 50 |
| COc1cc(C(F)(F)F)cnc1NS(=O)(=O)c1c[nH]c(-c2ccccn2)c1 [Cpd 198, N-[3-methoxy-5-(trifluoromethyl)-2-pyridyl]-5-(2-pyridyl)-1H-pyrrole-3-sulfonamide] | 0.5 to 5 |
| O=S(=O)(Nc1cc(C(F)(F)F)ncc1F)c1c[nH]c(-c2ccccc2)c1 [Cpd 199, N-[5-fluoro-2-(trifluoromethyl)-4-pyridyl]-5-phenyl-1H-pyrrole-3-sulfonamide] | 5 to 50 |
| N#CCc1cnc(NS(=O)(=O)c2c[nH]c(-c3ccccn3)c2)c(F)c1 [Cpd 201, N-[5-(cyanomethyl)-3-fluoro-2-pyridyl]-5-(2-pyridyl)-1H-pyrrole-3-sulfonamide] | 5 to 50 |
| CCOC(=O)c1ccc(NS(=O)(=O)c2c[nH]c(-c3ccccn3)c2)c(F)c1 [Cpd 203] | 0.5 to 5 |
| O=S(=O)(Nc1cc(F)c(C(F)(F)F)cc1F)c1c[nH]c(-c2ncccc2Cl)c1 [Cpd 204, 5-(3-chloro-2-pyridyl)-N-[2,5-difluoro-4-(trifluoromethyl)phenyl]-1H-pyrrole-3-sulfonamide] | < 0.5 |
| O=S(=O)(Nc1cc(F)c(OC(F)F)cc1F)c1c[nH]c(-c2ccccn2)c1 [Cpd 205, N-[4-(difluoromethoxy)-2,5-difluoro-phenyl]-5-(2-pyridyl)-1H-pyrrole-3-sulfonamide] | < 0.5 |
| O=S(=O)(Nc1cc(F)c(C(F)(F)F)cc1F)c1c[nH]c(-c2cc(Cl)ccn2)c1 [Cpd 214, 5-(4-chloro-2-pyridyl)-N-[2,5-difluoro-4-(trifluoromethyl)phenyl]-1H-pyrrole-3-sulfonamide] | 0.5 to 5 |
| O=S(=O)(Nc1cc(F)c(C(F)(F)F)cc1F)c1c[nH]c(-c2cccc(Cl)n2)c1 [Cpd 215, 5-(6-chloro-2-pyridyl)-N-[2,5-difluoro-4-(trifluoromethyl)phenyl]-1H-pyrrole-3-sulfonamide] | < 0.5 |
| C#Cc1cnc(NS(=O)(=O)c2c[nH]c(-c3ccccc3)c2)c(F)c1 [Cpd 216, N-(5-ethynyl-3-fluoro-2-pyridyl)-5-phenyl-1H-pyrrole-3-sulfonamide] | 0.5 to 5 |
